Test results: patent USRE38046E1, “Enhancement of the cellular immune response” (Biomira, Inc., priority 1986, dated 2003)

Legend:
[1] = system: TA3Ha cells; test: Priming with antigen, challenge 2-3 days later with live TA3Ha cells, survival; assay type: in vivo, mice
From the text: Groups of five mice at a time were primed with specific doses of T-alpha (TF) (Ta), T-beta (Tb) (asialo-GM1 disaccharide) and Tn S-Tags. After 2-3 days, they were challenged with 3×10^3 live TA3Ha cells.
Groups of five mice were primed with specific doses of epi. After 2-3 days they were challenged with 3′10^3 live TA3Ha cells.

[2] = system: DTH effector cells; test: Local transfer of DTH: antigen-primed spleen/T cells co-injected with triggering antigen into foot pad, net DTH swelling; assay type: in vivo, mice

For Epiglycanin, the “In Vivo Protection: Number of animals alive at 4 weeks” value (from here on “In Vivo Protection: Number”) ([1]; Dose of Ag 0.1 ug) was 1/20, the “In Vivo Protection: Number” value ([1]; Dose of Ag 0.5 ug) was 5/20 and the “In Vivo Protection: Number” value ([1]; Dose of Ag 1.0 ug) was 8/20. The “In Vivo Protection: Number” value ([1]; Dose of Ag 5.0 ug) was 8/15, the “In Vivo Protection: Number” value ([1]; Dose of Ag 10.0 ug) was 7/20 and the “No. alive (at d. 9)” value ([1]; priming dose 0.2 ug) was 2/5. The Survival ave. ([1]; priming dose 0.2 ug) was 33.8 days, the “No. alive (at d. 9)” value ([1]; priming dose 1 ug) was 4/5 and the Survival ave. ([1]; priming dose 1 ug) was 44.2 days. The “No. alive (at d. 9)” value ([1]; priming dose 2 ug) was 4/5, the Survival ave. ([1]; priming dose 2 ug) was 25.2 days and the “No. alive (at d. 9)” value ([1]; priming dose 10 ug) was 0/4. For the same substance, the Survival ave. ([1]; priming dose 10 ug) was 22.3 days, the “No. alive (at d. 9)” value ([1]; priming dose 20 ug) was 1/5 and the Survival ave. ([1]; priming dose 20 ug) was 29.0 days. For the same substance, the “No. alive (at d. 9)” value ([1]; priming dose 100 ug) was 1/5, the Survival ave. ([1]; priming dose 100 ug) was 25.5 days and the “protection against TA3Ha tumor cells” value ([1]; summary of Table 3) was “did provide protection”. For the same substance, the DTH reaction ([2]; cells primed with the priming Ag, triggering Ag Fuc) was “not to those carbohydrate determinants which are not represented on epiglycanin”, the DTH reaction ([2]; cells primed with the priming Ag, triggering Ag Ta, listed as epi) was “reaction was with the T alpha, T beta and Tn determinants” and the DTH reaction ([2]; cells primed with the priming Ag, triggering Ag Tb, listed as epi) was “reaction was with the T alpha, T beta and Tn determinants”. For the same substance, the DTH reaction ([2]; cells primed with the priming Ag, triggering Ag Tn, listed as epi) was “reaction was with the T alpha, T beta and Tn determinants”, the DTH reaction ([2]; triggering antigen Epi-M (epi linked to SEPHAROSE microspheres)) was “induced a specific DTH response” and the DTH reaction ([2]; triggering antigen irradiated TA3Ha cells) was “induced a specific DTH response”.
